Measured values reported in patent publication US9868715B2 (THE BOARD OF REGENTS OF THE UNIVERSITY OF TEXAS SYSTEMS, priority 2014, dated 2018).

Experiments:
[1] = molecular target: T1, human CBS (cystathionine-β-synthase) (Homo sapiens, UniProt P35520); assay: H2S production by recombinant CBS; assay type: biochemical; conditions: 100 μM compound; H2S production as % of control (100%)
T1 construct: GST (N); made in house; host or cells: E. coli BL21(DE3) Codon Plus
T1 sequence (P35520 1-551): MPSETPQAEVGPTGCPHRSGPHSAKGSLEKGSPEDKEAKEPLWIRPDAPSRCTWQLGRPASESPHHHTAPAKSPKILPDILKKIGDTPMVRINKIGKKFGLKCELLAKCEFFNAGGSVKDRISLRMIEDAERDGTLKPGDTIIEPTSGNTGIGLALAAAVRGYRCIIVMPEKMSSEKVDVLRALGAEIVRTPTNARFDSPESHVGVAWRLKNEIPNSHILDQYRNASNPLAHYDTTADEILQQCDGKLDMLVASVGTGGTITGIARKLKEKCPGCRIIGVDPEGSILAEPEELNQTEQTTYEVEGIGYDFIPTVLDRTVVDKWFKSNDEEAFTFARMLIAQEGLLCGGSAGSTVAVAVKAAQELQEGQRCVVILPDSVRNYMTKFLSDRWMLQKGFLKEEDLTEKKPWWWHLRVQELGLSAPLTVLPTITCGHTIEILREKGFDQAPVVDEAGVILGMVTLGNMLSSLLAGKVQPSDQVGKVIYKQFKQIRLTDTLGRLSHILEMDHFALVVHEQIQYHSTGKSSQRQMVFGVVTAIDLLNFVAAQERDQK
Method: Recombinant human CBS protein expression and purification. The expression and purification of human CBS was performed as described previously (Asimakopoulou et al. 2013, Br J Pharmacol. 169(4):922-32). Briefly, E. Coli BL21(DE3) Codon Plus cells (Stratagene, La Jolla, Calif., USA) containing the expression vector pGEX-Kg/GST-CBS were grown at 37° C. and 180 rpm in LuriaBertani (LB) broth medium containing 100 μg/ml ampicillin to an absorption of 0.6-0.8 at 600 nm. Protein expression was induced by addition of 0.1 mM IPTG (isopropyl-b-D-thiogalactopyranoside) and cells were further incubated at 30° C. overnight. The bacteria were harvested and sonicated in lysis buffer PBS (140 mM NaCl, 2.7 mM KCl, 10 mM Na2HPO4, 1.8 mM KH2PO4, pH 7.8) containing a protease inhibitors cocktail (Sigma). The protein lysate was loaded onto a GSTrap FF 1 ml affinity column (Amersham Biosciences) and the GST-CBS recombinant protein was eluted with the elution buffer (50 mM Tris-HCl, 10 mM reduced glutathione, pH 8.0) and then dialyzed and concentrated in 10 mM sodium phosphate buffer (pH 8.2) and DTT (1 mM).
Measurement of H2S production by recombinant CBS. The measurement of H2S production by recombinant CBS enzyme was performed as described (Asimakopoulou et al. 2013, Br J Pharmacol. 169(4):922-32). Briefly, each test consisted of a 100 μl reaction mixture in 50 mM sodium phosphate buffer pH 8.2 containing 1 μg of the purified human CBS enzyme, 0.01 mM pyridoxal-5′-phosphate (PLP), 10 mM L-cysteine and 0.5 mM homocysteine. […] The reaction was initiated by transferring the Eppendorf tubes from ice to a 37° C. shaking water bath. After 60 minutes of incubation at 37° C., the reaction was terminated by adding 1% ZnAc followed by 10% trichloroacetic acid. Subsequently, N,N-dimethylphenylendiamine sulfate (20 mM in 7.2 M HCl) and FeCl3 (30 mM in 1.2 M HCl) were added and the optical absorbance of the solutions was measured at 650 nm.

[2] = system: transformed PSC (human pancreatic stellate cells); assay: PSC proliferation, AlamarBlue Cell Viability Assay; assay type: cell-based; conditions: for inhibition at 5 µM / inhibition at 10 µM / inhibition at 20 µM: Homo sapiens, read-out: Inhibitory Effect (%) on PSC proliferation; for inhibition at 5 µM / inhibition at 10 µM / inhibition at 20 µM / Inhibitory Effect (%) on PSC proliferation: mean of at least three independent experiments, NE = No effect; for inhibition at 10 µM / Inhibitory Effect (%) on PSC proliferation: 10 μM
Method: The calculated lipophilicity (cLogP) and topological polar surface area (tPSA) values of synthesized analogues are listed in Table 1. […] AlamarBlue is a non-toxic reagent that is converted to a highly fluorescent end product by viable cells.
Under an IRB-approved tissue protocol, discarded human resected pancreatic tissue (500 mm^3) was attained fresh from the operating room at the University of Texas Medical Branch. The tissue was minced and plated on a collagen-coated flask (15 μg/mL, Invitrogen) with DMEM (VWR; Radnor, Pa.) supplemented with penicillin 200 U/mL, streptomycin 200 μg/mL, amphotericin B 0.25 μg/mL and gentimicin 50 μg/mL (Invitrogen, Carlsbad Calif.), 10% fetal bovine serum (Lonza, Walkersville, Md.), 1% insulin-transferrin, selenium-ethanolamine (Gibco, Grand Island, N.Y.), and 1% non-essential amino acids (Sigma-Aldrich, St. Louis, Mo.). The human PSC were isolated by the outgrowth method.^41-43 The purity of PSC culture was confirmed by immunohistochemical staining for vimentin, α-smooth muscle actin, glial fibrillar acidic protein, or Oil red O staining. Primary PSC were transformed and immortalized for use in experiments using lentiviral vectors containing SV40 Large T antigen and human telomerase (plasmid #12245 and 12246; Addgene, Cambridge, Mass.). Cultures were maintained in DMEM with 10% FBS, at 37° C. in a humidified 95% O2/5% CO2 atmosphere.
Cell proliferation assay. Transformed PSC (3×10^3) were plated in 96-well plates, in sextuplicate. […] AlamarBlue reagent (10% sample volume, DAL1025) was added to each well per Invitrogen's protocol. Fluorescence was recorded using excitation/emission wavelengths of 544/590 nm and the SpectraMax M2 Microplate Reader (Molecular Devices, Sunnyvale Calif.).
Statistical analysis. Dose-response curves were generated by plotting fluorescence or absorbance versus log (compound concentration). A best-fit curve was created using nonlinear regression, and the IC50 or EC50 determined from the graph (GraphPad Prism 5; GraphPad Software Inc., La Jolla, Calif.). To analyze continuos variables, unpaired student t-tests and one-way ANOVA with Tukey-Kramer multiple comparisons post-test (GraphPad Prism 5). Significance was set at p<0.05.

Compound	activity at 100 µM [1] [%]	melting point [°C]	inhibition at 5 µM [2] [%]	inhibition at 10 µM [2] [%]	inhibition at 20 µM [2] [%]	Inhibitory Effect (%) on PSC proliferation [2] [%]	Antiproliferative effect on PSC, result in words ([2]; transformed PSC, AlamarBlue)
COC(=O)[C@@H]1CCCN1CCOc1ccc(-c2cc(=O)c3c(OC)cc(OC)cc3o2)cc1 [Compound 18, 1-(2-(4-(5,7-Dimethoxy-4-oxo-4H-chromen-2-yl)phenoxy)ethyl)-pyrrolidine-2-carboxylic acid methyl ester]	116	121 to 122	22	37	67		
COc1cc(OC)c2c(=O)cc(-c3ccc(OCC(O)CN(C)C)cc3)oc2c1 (centres unmarked) [Compound 26, 2-(4-(3-Dimethylamino-2-hydroxypropoxy)-phenyl)-5,7-dimethoxy-chromen-4-one]	117	92 to 93	42	60	71		
COc1cc(OC)c2c(=O)cc(-c3ccc(OCCCN(C)C)cc3)oc2c1 [Compound 12, 2-(4-(3-Dimethylaminopropoxy)phenyl)-5,7-dimethoxy-chromen-4-one]	83.9	105 to 106	36	59	86	59	
COc1cc(OC)c2c(=O)cc(-c3ccc(-c4ccc(F)nc4)cc3)oc2c1 [Compound 33, 2-(4-(6-Fluoropyridin-3-yl)phenyl)-5,7-dimethoxy-chromen-4-one]	107	209 to 210		6	19		substantial loss of the activity
COc1cc(OC)c2c(=O)cc(-c3ccc(NCCN4CCCC4)cc3)oc2c1 [Compound 37]	109	148 to 149	21	51	80		
CCN(CC)CCOc1ccc(-c2cc(=O)c3c(OC)cc(OC)cc3o2)cc1 [Compound 17, 2-(4-(2-Diethylaminoethoxy)-phenyl)-5,7-dimethoxy-chromen-4-one]	106	116 to 117	33	60	72		
COc1cc(OC)c2c(=O)cc(-c3ccc(OCC(O)CN4CCCC4)cc3)oc2c1 (centres unmarked) [Compound 25, 2-(4-(2-Hydroxy-3-pyrrolidin-1-yl-propoxy)phenyl)-5,7-dimethoxy-chromen-4-one]	85.9	137 to 138	21	37	57		
COc1cc(OC)c2c(=O)cc(-c3ccc(OC4CCNCC4)cc3)oc2c1 [Compound 19, 5,7-Dimethoxy-2-(4-(piperidin-4-yloxy)-phenyl)-chromen-4-one]	115	205 to 206		21			
COc1cc(OC)c2c(=O)cc(-c3ccc(OC4CCN(C)CC4)cc3)oc2c1 [Compound 9, 5,7-Dimethoxy-2-(4-(1-methylpiperidin-4-yloxy)phenyl)-chromen-4-one]	122	143 to 144	28	49		49	
COc1cc(O)c2c(=O)cc(-c3ccc(OCCN4CCCC4)cc3)oc2c1 [Compound 38]	109	127 to 129		39	99		
COc1cc(OC)c2c(=O)cc(-c3ccc(OCCN4CCN(C)CC4)cc3)oc2c1 [Compound 15, 5,7-Dimethoxy-2-(4-(2-(4-methylpiperazin-1-yl)ethoxy)phenyl)-chromen-4-one]	124	144 to 145	22	42	67		
COc1cc(OC)c2c(=O)cc(-c3ccc(OCCN4CCOCC4)cc3)oc2c1 [Compound 11, 5,7-Dimethoxy-2-(4-(2-morpholin-4-yl-ethoxy)phenyl)-chromen-4-one]	117	149 to 150					

Second part, led by results:

activity at 100 µM [1] [%]	melting point [°C]	Compound	inhibition at 5 µM [2] [%]	inhibition at 10 µM [2] [%]	inhibition at 20 µM [2] [%]	Inhibitory Effect (%) on PSC proliferation [2] [%]	Antiproliferative effect on PSC, result in words ([2]; transformed PSC, AlamarBlue)
119	165 to 166	COc1cc(OC)c2c(=O)cc(-c3ccc(OCCN)cc3)oc2c1 [Compound 20, 2-(4-(2-Aminoethoxy)-phenyl)-5,7-dimethoxy-chromen-4-one]	6	35	70		
116	170 to 171	COc1cc(OC)c2c(=O)cc(-c3ccc(OCCCN)cc3)oc2c1 [Compound 21, 2-(4-(3-Aminopropoxy)-phenyl)-5,7-dimethoxy-chromen-4-one]	22	39			
112	159 to 160	COc1cc(OC)c2c(=O)cc(-c3ccc(NCCN(C)C)cc3)oc2c1 [Compound 36, 2-(4-(2-Dimethylaminoethylamino)phenyl)-5,7-dimethoxy-chromen-4-one]	30	60	84		
69.4		COc1cc(OC)c2c(=O)cc(-c3ccc(Br)cc3)oc2c1 [Compound 31, 2-(4-Bromophenyl)-5,7-dimethoxy-chromen-4-one]	12	10	22		
125	153 to 154	COc1cc(OC)c2c(=O)cc(-c3ccc(OCCN(C)C)cc3)oc2c1 [Compound 10, 2-(4-(2-Dimethylaminoethoxy)phenyl)-5,7-dimethoxy-chromen-4-one]	19	51	65	51	
130		COc1cc(OC)c2c(=O)cc(-c3ccc(O)cc3)oc2c1 [Compound 6, 2-(4-Hydroxy-phenyl)-5,7-dimethoxy-chromen-4-one]					
